Patent publication US4293650A, “Anti-coccidial substance and its preparation” (Rhone-Poulenc Industries, priority 1977, dated 1981)

Experiments:
[1] = system: Diplococcus pneumoniae, Til strain (Institut Pasteur); assay: Bacteriostatic activity in vitro (dilution method); format: cell-based; details: nutrient broth
[2] = system: Shigella dysenteriae, Shiga L (Institut Pasteur); format: cell-based; details: nutrient broth
[3] = system: Streptococcus pyogenes haemolyticus, Dig 7 strain (Institut Pasteur); assay: Bacteriostatic activity in vitro (dilution method); format: cell-based; details: nutrient broth
[4] = system: Sarcina lutea - ATCC 9341; assay: Bacteriostatic activity in vitro (dilution method); format: cell-based; details: nutrient broth
[5] = system: Proteus vulgaris; assay: Bacteriostatic activity in vitro (dilution method); format: cell-based; details: nutrient broth
[6] = system: chickens; assay: Toxicity of medicated feed in chickens (non-toxic concentrations); format: in vivo; details: between 0.005% and 0.04% by weight in feed
Procedure: Anti-coccidial activity: the anti-coccidial activity was determined in chickens infested in particular with Eimeria tenella and Eimeria acervulina.
The anti-coccidial activity of 37,454 RP (sodium salt), incorporated into chicken feed, manifests itself at non-toxic concentrations of between 0.005% and 0.04% by weight of the sodium salt in the feed.

[7] = system: Bacillus cereus - ATCC 6630; assay: Bacteriostatic activity in vitro (dilution method); format: cell-based; details: nutrient broth
[8] = system: Mycobacterium species - ATCC 607; assay: Bacteriostatic activity in vitro (dilution method); format: cell-based; details: nutrient broth
[9] = system: mice; assay: Acute toxicity in mice; format: in vivo; details: orally, single dose
Procedure: Acute toxicity: in mice, the 50% lethal dose (LD50) is 90 mg/kg given orally in a single dose.

[10] = system: Staphylococcus aureus,Smith strain; assay: Bacteriostatic activity in vitro (dilution method); format: cell-based; details: nutrient broth
[11] = system: Streptococcus faecalis - ATCC 8043; assay: Bacteriostatic activity in vitro (dilution method); format: cell-based; details: nutrient broth
[12] = system: Pseudomonas aeruginosa; assay: Bacteriostatic activity in vitro (dilution method); format: cell-based; details: nutrient broth
[13] = system: Bacillus subtilis - ATCC 6633; assay: Bacteriostatic activity in vitro (dilution method); format: cell-based; details: nutrient broth
[14] = system: Salmonella schottmuelleri (paratyphi B), Fougenc strain (Institut Pasteur); assay: Bacteriostatic activity in vitro (dilution method); format: cell-based; details: nutrient broth
[15] = system: Staphylococcus aureus,strain 209 P- ATCC 6538 P; assay: Bacteriostatic activity in vitro (dilution method); format: cell-based; details: nutrient broth
[16] = system: Neisseria catarrhalis (A 152, Institut Pasteur); assay: Bacteriostatic activity in vitro (dilution method); format: cell-based; details: nutrient broth

Compound: CO[C@H]1CC[C@H](O[C@H]2[C@H](C)[C@@H]([C@H]3CC[C@H]([C@@H]4CC[C@H]([C@@]5(C)OC6(O[C@H](C[C@@H]7O[C@](O)([C@@H](O)C(=O)[O-])[C@@H](C)[C@H](OC)[C@@]7(C)OC)C[C@@H](OC)[C@H]6C)[C@H](C)[C@H]5OC)O4)O3)O[C@](C)(O)[C@@H]2C)O[C@@H]1C.[Na+] (stereo partly shown) [37,454 RP (sodium salt)]
- Minimum bacteriostatic concentration [1]: 0.1 μg/cc
- Minimum bacteriostatic concentration [2]: > 50 μg/cc
- Minimum bacteriostatic concentration [3]: 0.6 μg/cc
- Minimum bacteriostatic concentration [4]: 0.9 μg/cc
- Minimum bacteriostatic concentration [5]: > 50 μg/cc
- Toxicity at active feed concentrations [6]: non-toxic
- Minimum bacteriostatic concentration [7]: 0.3 μg/cc
- Minimum bacteriostatic concentration [8]: 10 μg/cc
- 50% lethal dose (LD50) [9]: 90 mg/kg
- Minimum bacteriostatic concentration [10]: 0.8 μg/cc
- Minimum bacteriostatic concentration [11]: 0.3 μg/cc
- Minimum bacteriostatic concentration [12]: > 15 μg/cc
- Minimum bacteriostatic concentration [13]: 0.8 μg/cc
- Minimum bacteriostatic concentration [14]: > 50 μg/cc
- Minimum bacteriostatic concentration [15]: 0.6 μg/cc
- Minimum bacteriostatic concentration [16]: > 20 μg/cc
